Measured values from US8741886B2, “Baclofen and acamprosate based therapy of neurological disorders” (Pharnext, priority 2011, dated 2014).

Assays:
[1] = test system: mice injected i.c.v. with Aβ25-35 peptide; assay: Spontaneous alternation, Y-maze test, after i.c.v. Aβ25-35; type: in vivo; conditions: Acamprosate 32 μg/kg/day, Baclofen 480 μg/kg/day
From the text: The Y-maze is made of grey polyvinylchloride. Each arm is 40 cm long, 13 cm high, 3 cm wide at the bottom, 10 cm wide at the top, and converging at an equal angle. […] An alternation is defined as entries into all three arms on consecutive occasions.

[2] = test system: rat primary cortical cells; assay: Toxicity of human Aβ1-42 peptide on primary cortical neuron cells: LDH release; type: cell-based; conditions: for protection of neurons from amyloid injury: 1 h pre-treatment, Estradiol 150 nM or BDNF 50 ng/mL
Experimental: Rat cortical neurons were cultured as described by Singer et al. (47). Briefly pregnant female rats of 15 days gestation were killed by cervical dislocation (Rats Wistar) and the foetuses were removed from the uterus. The cortex was removed and placed in ice-cold medium of Leibovitz (L15) containing 2% of Penicillin 10.000 U/ml and Streptomycin 10 mg/ml and 1% of bovine serum albumin (BSA). Cortexes were dissociated by trypsin for 20 min at 37° C. (0.05%). The reaction was stopped by the addition of Dulbecco's modified Eagle's medium (DMEM) containing DNasel grade II and 10% of foetal calf serum (FCS). Cells were then mechanically dissociated by 3 serial passages through a 10 ml pipette and centrifuged at 515×g for 10 min at +4° C. The supernatant was discarded and the pellet of cells was re-suspended in a defined culture medium consisting of Neurobasal supplemented with B27 (2%), L-glutamine (0.2 mM), 2% of PS solution and 10 ng/ml of BDNF. Viable cells were counted in a Neubauer cytometer using the trypan blue exclusion test. The cells were seeded at a density of 30 000 cells/well in 96 well-plates (wells were pre-coated with poly-L-lysine (10 μg/ml)) and were cultured at +37° C. in a humidified air (95%)/CO2 (5%) atmosphere.
Briefly, Aβ1-42 peptide was reconstituted in define culture medium at 40 μM (mother solution) and was slowly shaken at +37° C. for 3 days in dark. The control medium was prepared in the same conditions.
After 10 days of neuron culture, test compounds were solved in culture medium (+0.1% DMSO) and then pre-incubated with neurons for 1 hour before the Aβ1-42 application (in a final volume per culture well of 100 μl). One hour after test compound(s) incubation, 100 μl of Aβ1-42 peptide was added to a final concentration of 10 μM diluted in presence of drug(s), in order to avoid further test compound(s) dilutions. Cortical neurons were intoxicated for 24 hours. Three separate cultures were performed per condition, 6 wells per condition.
BDNF (50 ng/ml) and Estradiol-β (150 nM) were used as positive control and reference compounds respectively. Three separate cultures will be performed per condition, 12 wells per condition.
Estradiol-β at 150 nM was used as a positive control (FIG. 4).
Estradiol-β was solved in culture medium and pre-incubated for 1 h before the amyloid-β1-42 application.
The following conditions were assessed: • CONTROL PLAQUE: 12 wells/condition • Negative Control: medium alone+0.1% DMSO • Intoxication: amyloid-β1-42 (10 μM) for 24 h • Reference compound: Estradiol (150 nM) 1 hr. • DRUG PLATE: 6 wells/condition • Negative Control: medium alone+0.1% DMSO • Intoxication: amyloid-β1-42 (10 μM) for 24 h • Test compound(s): test compound(s)—1 hr followed by amyloid-β1-42 (10 μM) for 24 h Lactate Dehydrogenase (LDH) Activity Assay
24 hours after intoxication, the supernatant was taken off and analyzed with Cytotoxicity Detection Kit (LDH, Roche Applied Science, ref: 11644793001, batch: 11800300). This colorimetric assay for the quantification of cell toxicity is based on the measurement of lactate dehydrogenase (LDH) activity released from the cytosol of dying cells into the supernatant.
Data were expressed in percentage of control conditions (no intoxication, no amyloid=100%) in order to express the amyloid injury. All values were expressed as mean+/−SEM (s.e.mean) of the 3 cultures (n=6 wells per condition). Statistic analyses were done on the different conditions (ONE-WAY ANOVA followed by the Dunnett's test when it was allowed, Statview software version 5.0).

Molecule: COc1cc2c(cc1OC)C(=O)C(CC1CCN(Cc3ccccc3)CC1)C2 (centres unmarked) [Donepezil]
- protection of percentage of alternation (Y-maze), low doses with Donepezil ([1]; Donepezil 0.25 mg/kg/day): 32%
- effect on percentage of alternation (Y-maze), low doses (in words) ([1]; drugs alone: Donepezil 0.25 mg/kg/day): no significant effect

Molecule: C[C@]12CC[C@@H]3c4ccc(O)cc4CC[C@H]3[C@@H]1CC[C@@H]2O [Estradiol]
- protection of neurons from amyloid injury [2]: −94%

Molecule: NCCCS(=O)(=O)O [Homotaurine]
- prevention of Aβ1-42 intoxication by pre-treatment ([2]; 8 nM): 99%

B1: BDNF: BDNF (50 ng/ml) used as positive control for neuroprotection (protein, UniProt P23560 19-247, looked up)
Neurotrophic factor BDNF …: APMKEANIRGQGGLAYPGVRTHGTLESVNGPKAGSRGLTSLADTFEHVIEELLDEDQKVRPNEENNKDADLYTSRVMLSSQVPLEPPLLFLLEEYKNYLDAANMSMRVRRHSDPARRGELSVCDSISEWVTAADKKTAVDMSGGTVTVLEKVPVSKGQLKQYFYETKCNPMGYTKEGCRGIDKRHWNSQCRTTQSYVRALTMDSKKRIGWRFIRIDTSCVCTLTIKRGR
- protection of neurons from amyloid injury [2]: −94%
